From ChEMBL document CHEMBL1201862, “PubChem BioAssay data set” (2004)
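1) Cells in 96-well plates. 2) Compound, 48 h, 5 concentrations. 3) Linear interpolation between surrounding doses. 4) Unreached endpoint = highest concentration. The concentration for 50% growth inhibition is given as GI50.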 Activity calls are given as the source filed them. Rule as the data show it: active = GI50 up to about 1.1 µM and inactive = higher.

Legend:
Experiment in all cases: inhibition of tumour cell growth, NCI panel, 48 h
[1] = tested on: LXFL 529
[2] = tested on: DMS-114
[3] = tested on: XF498
[4] = tested on: RXF 631
[5] = tested on: DMS-273
[6] = tested on: DLD-1
[7] = tested on: SNB-78
[8] = tested on: HOP-18
[9] = tested on: M19-MEL

Structure (SMILES)	GI50 [1]	GI50 [2]	GI50 [3]	GI50 [4]	GI50 [5]	GI50 [6]	GI50 [7]	GI50 [8]	GI50 [9]
Cc1ccc2c(c1)-c1c3c(nn1-c1ccccc1)-c1ccccc1SC3O2 (stereo not drawn)	> 100 µM (inactive)	> 100 µM (inactive)	> 100 µM (inactive)	2.65 µM (inactive)	> 100 µM (inactive)	> 100 µM (inactive)	> 100 µM (inactive)	> 100 µM (inactive)	
COc1ccc(S(=O)(=O)N[C@H](C(=O)O)c2ccccc2)cc1	> 100 µM (inactive)	> 100 µM (inactive)	> 100 µM (inactive)		> 100 µM (inactive)	> 100 µM (inactive)	> 100 µM (inactive)	> 100 µM (inactive)	> 100 µM (inactive)
C/C(=N\NS(=O)(=O)c1ccc(C)cc1)c1c(O)cc(C)oc1=O	> 100 µM (inactive)					> 100 µM (inactive)	> 100 µM (inactive)	> 100 µM (inactive)	> 100 µM (inactive)
CCNCCCCNCCCCNCCCCNCCCCNCC	> 94.8 µM (inactive)	> 100 µM (inactive)	> 32.8 µM (inactive)		> 49.7 µM (inactive)	> 100 µM (inactive)	> 100 µM (inactive)	> 100 µM (inactive)	> 100 µM (inactive)
COC1(OC)C2(Cl)C(Cl)=C(Cl)C1(Cl)C1c3ccc(C(C)=O)c4cccc(c34)C12 (stereo not drawn)	25.6 µM (inactive)	15.9 µM (inactive)			3.89 µM (inactive)		28.3 µM (inactive)	> 100 µM (inactive)	25.6 µM (inactive)
N#CCN1C(=O)c2cccc3cc([N+](=O)[O-])cc(c23)C1=O	40.1 µM (inactive)	38.7 µM (inactive)	25.8 µM (inactive)		30.7 µM (inactive)	32 µM (inactive)	71.6 µM (inactive)	> 100 µM (inactive)	19.8 µM (inactive)
Cc1cc(C)c(-c2noc(-c3ccc(Cl)cc3)c2C2=NCCN2)c(C)c1	19.9 µM (inactive)		21.4 µM (inactive)	43.3 µM (inactive)		22.4 µM (inactive)	20.1 µM (inactive)	1.17 µM (inactive)	35.8 µM (inactive)
Cc1cc(C)nc(NS(=O)(=O)c2ccc(Nc3c4ccccc4nc4c(C(=O)N5CCN(CCO)CC5)ccc(Cl)c34)cc2)n1		72.3 µM (inactive)		85.5 µM (inactive)	> 100 µM (inactive)		> 100 µM (inactive)		76 µM (inactive)
CCOC(=O)C(=O)Nc1ccc(C)cc1C	> 100 µM (inactive)	> 100 µM (inactive)				> 100 µM (inactive)	> 100 µM (inactive)	> 100 µM (inactive)	> 100 µM (inactive)
S=c1[nH]nc(Cc2ccccc2)c(=S)[nH]1	> 100 µM (inactive)		> 100 µM (inactive)	> 100 µM (inactive)	> 100 µM (inactive)	94.8 µM (inactive)	> 100 µM (inactive)	25.4 µM (inactive)	> 100 µM (inactive)
CCC/C(=N\NC(=S)N1CC2CCC(CC2)C1)c1ccccn1	0.0113 µM (active)		0.00543 µM (active)		0.00839 µM (active)	0.0118 µM (active)	0.344 µM (active)	0.149 µM (active)	
CC(C)c1cc2c(O)c(c1)Cc1cc(C(C)C)cc(c1O)Cc1cc(C(C)C)cc(c1O)Cc1cc(C(C)C)cc(c1O)Cc1cc(C(C)C)cc(c1O)Cc1cc(C(C)C)cc(c1O)C2	> 100 µM (inactive)	> 100 µM (inactive)	> 100 µM (inactive)		> 100 µM (inactive)	> 100 µM (inactive)	> 100 µM (inactive)		> 100 µM (inactive)
N#Cc1cc([N+](=O)[O-])ccc1NC(=O)C(=O)C(C(=O)c1ccc2ccccc2c1)C1OCc2ccccc21 (stereo not drawn)	4.41 µM (inactive)	8.07 µM (inactive)		11.3 µM (inactive)		11.1 µM (inactive)	3.93 µM (inactive)		11.8 µM (inactive)
CC1OC(OP(=O)(OCc2ccccc2)OCc2ccccc2)C(OC(=O)c2ccccc2)C(OC(=O)c2ccccc2)C1I (stereo not drawn)	41.8 µM (inactive)		> 100 µM (inactive)		53 µM (inactive)	50 µM (inactive)			61.5 µM (inactive)
O=C(N/N=C(\C1=Nc2ccc(Cl)cc2NC1O)C(O)/C=C/c1ccccc1)c1ccncc1 (stereo not drawn)	> 100 µM (inactive)	> 100 µM (inactive)	> 100 µM (inactive)		> 100 µM (inactive)	> 100 µM (inactive)	> 100 µM (inactive)		> 100 µM (inactive)
Cc1nc(N)c(-c2ccccc2)s1	> 100 µM (inactive)	> 76 µM (inactive)	34.6 µM (inactive)	> 100 µM (inactive)	39.9 µM (inactive)	> 82.6 µM (inactive)	68.4 µM (inactive)	> 100 µM (inactive)	> 100 µM (inactive)
CCCN(CCC)C(=O)C(=O)c1c(N)[nH]n(-c2ccccc2)c1=O	66.2 µM (inactive)	> 100 µM (inactive)	> 100 µM (inactive)	> 100 µM (inactive)	> 100 µM (inactive)	78.3 µM (inactive)	> 100 µM (inactive)	> 100 µM (inactive)	> 100 µM (inactive)
COC(=O)C(=O)CC(=O)CCn1[nH]c(=O)c(Cl)c(Cl)c1=O	> 100 µM (inactive)	> 100 µM (inactive)	> 100 µM (inactive)		> 100 µM (inactive)	> 100 µM (inactive)	> 100 µM (inactive)		> 100 µM (inactive)
c1ccc2c(c1)SC(=C1Sc3ccccc3S1)S2	> 100 µM (inactive)	69.8 µM (inactive)	> 100 µM (inactive)	> 100 µM (inactive)	> 100 µM (inactive)	> 100 µM (inactive)	> 100 µM (inactive)	> 100 µM (inactive)	> 100 µM (inactive)
N#CC1(Cc2ccc(N)cc2)c2ccccc2C=CN1C(=O)c1ccccc1 (stereo not drawn)	35.8 µM (inactive)	38.8 µM (inactive)	28.9 µM (inactive)		47.1 µM (inactive)	40 µM (inactive)	47.9 µM (inactive)	25.2 µM (inactive)	40.1 µM (inactive)
ClCCN(CC#CCCCC#CCN(CCCl)CCCl)CCCl	12.4 µM (inactive)	3.01 µM (inactive)		10.8 µM (inactive)	4 µM (inactive)	15.6 µM (inactive)	17.2 µM (inactive)	17.8 µM (inactive)	12.1 µM (inactive)
O=C1C(=O)N(c2ccc(Cl)cc2)C(=O)C(=O)C1c1nc2ccccc2o1	> 100 µM (inactive)	> 100 µM (inactive)	> 100 µM (inactive)	> 100 µM (inactive)	> 100 µM (inactive)	> 100 µM (inactive)	> 100 µM (inactive)		> 100 µM (inactive)
CN(C)/C=N/c1nc2c(ncn2C2OC(CO)C(O)C2O)c(=O)[nH]1 (stereo not drawn)	> 100 µM (inactive)	> 100 µM (inactive)	> 100 µM (inactive)	> 100 µM (inactive)	> 100 µM (inactive)	> 100 µM (inactive)	> 100 µM (inactive)	> 100 µM (inactive)	> 100 µM (inactive)
CC(C)(C)C1CCC(O)(c2ccccc2)CC1 (stereo not drawn)	78.2 µM (inactive)	45.6 µM (inactive)	1.97 µM (inactive)		> 100 µM (inactive)	> 100 µM (inactive)	> 100 µM (inactive)	> 100 µM (inactive)	> 100 µM (inactive)
CC[C@H]1CN2CCc3cc(OC)c(OC)cc3[C@@H]2C[C@@H]1C[C@H]1NCCc2c1[nH]c1ccc(O)cc21 [TUBULOSINE]	0.0202 µM (active)	< 0.01 µM (active)	0.0188 µM (active)		< 0.01 µM (active)	0.0279 µM (active)	0.0136 µM (active)	0.0454 µM (active)	< 0.01 µM (active)
